Data on eleven compounds can be found in patent publication US5510240A, “Method of screening a peptide library” (The Arizona Board of Regents, priority 1993, dated 1996).

One data set deals with T1, streptavidin (Streptomyces avidinii, UniProt P22629).
T1 construct: purchased Pierce, Rockford, Ill
In words: biotin inhibition of LHPQF-resin staining by streptavidin-alkaline phosphatase. Format: binding. The protocol:
FIG. 8. […] A: 100 nM; B: 10 nM; C: 1 nM; and D: 0.1 nM biotin. Blank beads (β-Ala-aminocaproic acid-resin) were mixed 1:1 with the LHPQF-resin prior to incubating with streptavidin-alkaline phosphatase to serve as an internal negative control.
The LHPQF-resin was then mixed with streptavidin-alkaline phosphatase in the presence of varying concentration of biotin. […] The inhibition study establishes that the HPQ consensus sequence binds to the biotin-binding site of streptavidin.

Data set [1] in a line: UV/VIS irradiation cleavage of ONb linker peptides, HPLC analysis. The following applies: in water. Format: physicochemical. The protocol:
Each peptide was irradiated for 1 and 3 hours with ultraviolet (UV) and visible (VIS) light in 0.3 ml of water or 3/7 mixture of chloroethanol:dichloromethane. A total of 16+16 experiments were run and assayed.
After exposure the supernatant was filtered off, lyophilized and re-dissolved to equal volumes of MeOH (0.3 ml). The products were analyzed on the HPLC.

A further data set deals with anti-v-mos. The following applies: known property of the commercial antibody; cited from earlier work.
In data set [2] the test system is anti-v-mos monoclonal antibody. Description: bead staining with anti-v-mos monoclonal antibody. The data set is classed as binding, mouse. The following applies: antibody 1 ug/ml; ABTS substrate with H2O2, 15 minutes. The method, then: The long v-mos beads were mixed with a thousand fold excess of the short v-mos beads. Two milliliters of the purified anti-v-mos monoclonal antibody (1 μg/ml) in PBS with 0.1% polyoxyethylenesorbitan monolaurate (TWEEN 20®) was added to the mixture of long and short v-mos beads and incubated at room temperature for one hour with gentle mixing. The beads were then washed for one hour with gentle mixing. The beads were then washed on a small polypropylene disposable column (obtained from Isolab) where the beads were retained by the frit. The beads were then mixed with 2 ml of a secondary antibody at 1:2000 dilution for one hour. After washing, the beads were poured into a polystyrene petri dish and allowed to settle. […]
The beads were washed on a small polypropylene disposable column (obtained from Isolab) which retained the beads on a frit. […] The v-mos beads were readily distinguished.
Approximately 230,000 beads were screened with an anti-v-mos alkaline phosphatase conjugate. […] Twenty-four of these beads were physically selected out and the amino acid sequence of eleven of them was determined. […]

The nature of data set [3]: peptide-bead reduction of nitro blue tetrazolium without exogenous enzyme. The following applies: absence of exogenous enzyme. The data set is classed as biochemical. From the text:
The peptide library was exposed to the chromogenic substrate nitro blue tetrazolium (NBT) chloride in the absence of exogeneous enzyme under conditions conducive to product formation, and positive reacting beads were identified. These beads were selected and sequenced.

The subject of a further data set is anti-β-endorphin MAb. In words: bead library screening with biotinylated anti-β-endorphin MAb and streptavidin-alkaline phosphatase. Format: binding. As to conditions: recycled pentapeptide library, 16 hours. The protocol: Prior to using the same random peptide library to screen with anti-β-endorphin MAb, all the blue beads that had stained for streptavidin-alkaline phosphatase alone were removed. The remaining beads were then treated with 8M guanidine hydrochloride to remove any bound protein. This recycled library was then mixed with biotinylated anti-β-endorphin MAb (anti-β-endorphin, clone 3-E7, was obtained commercially from Boehringer Mannheim, Indianapolis, Ind.) for 16 hours. After extensive washing, a secondary step with streptavidin-alkaline phosphatase was used to trigger the staining reaction for the ELISA. […] Peptide analogues with various carboxyl terminus of these ligand leads were synthesized and their affinity (Ki) was determined using ^3 H!Leu-enkaphalin (New England Nuclear, Boston, Mass.) as the labelled ligand and the unlabelled peptides as the competing ligand (anti-β-endorphin assay, Section 10.1.2, supra).

Where no end group is shown, it is not given here.

T1 sequence (P22629 25-183, species assumed): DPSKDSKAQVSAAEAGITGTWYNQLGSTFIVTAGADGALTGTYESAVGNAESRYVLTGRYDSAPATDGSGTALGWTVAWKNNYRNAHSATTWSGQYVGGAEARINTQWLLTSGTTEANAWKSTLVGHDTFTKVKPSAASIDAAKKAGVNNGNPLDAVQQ

Take `O=C(O)CCCC[C@@H]1SC[C@@H]2NC(=O)N[C@@H]21` [biotin]: the “effect on the staining of LHPQF-resin mimotope beads by streptavidin-alkaline phosphatase” value at streptavidin (FIG. 8, 100, 10, 1 and 0.1 nM biotin) is given as “concentration-dependent inhibitory effect”. Further, the “staining of the LHPQF-resin” value at streptavidin (biotin at 0.1 nM) is listed as “no effect”; on streptavidin (biotin at 1.0 nM), “partially inhibited”; on streptavidin (biotin at 10 nM) it was “partially inhibited”; on streptavidin (biotin at 100 nM), “completely blocked”.

“Fmoc-Trp-Tyr(OBu^t)-Phe-ONb-βAla-ACA-EDA-PepSyn K (WYFX; Fmoc, OBut, ONb-βAla-ACA-EDA-PepSyn K resin linkage) [peptide i]”: the cleavage products entry in data set [1] is reported as “cleaved to a single product”.

As for GSVYKA [short v-mos peptide], the “affinity of anti-v-mos antibody” value in the data set on anti-v-mos is on record as “negligible affinity”.

Turning to “Gly-Phe-Gly-Ser-Val-Tyr-aminocaproic acid-β-Ala-resin [PAM resin/v-mos peptide beads]”, the “bead color after anti-v-mos antibody and labelled secondary antibody” value in data set [2] is given as “turned dark green”.

For the compound PNNNH (also: bead-bound) [PNNNH-bead], the “reduction of NBT to dark blue diformazan” value in data set [3] was “capable of reducing NBT to a dark blue diformazan pigment”.

For “YGGFA (not fully specified) [tested with carboxyl terminus OH, NH2, βA-OH, βA-NH2]”, in the data set with anti-β-endorphin MAb, the “identification as ligand in anti-β-endorphin MAb bead screening” value (“identification as ligand” for short) is “identified”.

Regarding “YGGFQ (not fully specified) [tested with carboxyl terminus OH, NH2, βA-OH, βA-NH2]”, the “identification as ligand” value in the data set on anti-β-endorphin MAb was “identified”.

In the case of “YGGFT (not fully specified) [tested with carboxyl terminus OH, NH2, βA-OH, βA-NH2]”, in the data set on anti-β-endorphin MAb, the “identification as ligand” value is “identified”.

Regarding “YGGLQ (not fully specified) [tested with carboxyl terminus OH, NH2, βA-OH, βA-NH2]”, in the data set on anti-β-endorphin MAb, the “identification as ligand” value is “identified”.

With “YGGLS (not fully specified) [tested with carboxyl terminus OH, NH2, βA-OH, βA-NH2]”, the “identification as ligand” value in the data set on anti-β-endorphin MAb is recorded as “identified”.

For “YGGMV (not fully specified) [tested with carboxyl terminus OH, NH2, βA-OH, βA-NH2]”, the “identification as ligand” value with anti-β-endorphin MAb is “identified”.
